# Source: patent US6274636A (priority 1999, dated 2001)
# What was measured:
# [1] = human clinical trials, safety profile; assay type: in vivo
# [2] = known; cited from earlier work
# [3] = test system: muscarinic receptor subtype; assay: in vivo animal and clinical observations, muscarinic receptor subtype profile
# [4] = detection of radiolabelled compound in saliva; assay type: in vivo
# clinical subjects = assay: clinical observation, pupil response; assay type: in vivo, human
# rats = assay: in vivo animal observation, overdose in rats; conditions: rats exposed to an overdose
# [5] = test system: muscarinic cholinergic receptor; assay: pharmacological studies, muscarinic cholinergic receptor activity
# 5-HT1C receptor = assay: activity at the 5-HT1C receptor; conditions: anhydrous Form II
Structure (SMILES),safety profile [1],induction of extrapyramidal symptoms [2],muscarinic receptor subtype profile [3],detection in the saliva [4],pupilary response (clinical subjects),salivation (rats),muscarinic cholinergic receptor activity [5],activity at the 5-HT1C receptor (5-HT1C receptor)
"Cc1cc2c(s1)Nc1ccccc1N=C2N1CCN(C)CC1 [2-methyl-4-(4-methyl-1-piperazinyl)-10H-thieno[2,3-b][1,5]benzodiazepine]",favorable safety profile,less likely to induce extrapyramidal symptoms,complex muscarinic receptor subtype profile,can be detected in the saliva,pupilary constriction rather than the expected pupilary dilation,significant salivation,has muscarinic cholinergic receptor activity,–
"Cc1cc2c(s1)Nc1ccccc1N=C2N1CCN(C)CC1 [anhydrous Form II, 2-methyl-4-(4-methyl-1-piperazinyl)-10H-thieno[2,3-b][1,5]benzodiazepine]",–,–,–,–,–,–,–,active
